Results as given in patent US20070293484A1, “Thiophene Heteroaryl Amines” (SUGEN, INC., priority 2004, published 2007).
Values joined by “and” are separate entries in the source; they are usually repeats but may differ in a detail not shown here. Identical values can stand only once.

Columns and labels:
PDGFR = target: T1, PDGFR (Homo sapiens, UniProt P09619); assay: PDGFR bioassay (ELISA, in vitro kinase activity); format: biochemical; settings: PDGFR-β expressing NIH 3T3 cell lysate; read-out: IC50 (μM) PDGF-R
T1 construct: SUGEN, Inc; host or cells: NIH 3T3 cell lysate; receptor captured on plate with monoclonal anti-PDGFR antibody 28D4C10
T1 sequence (P09619 33-1106, species assumed): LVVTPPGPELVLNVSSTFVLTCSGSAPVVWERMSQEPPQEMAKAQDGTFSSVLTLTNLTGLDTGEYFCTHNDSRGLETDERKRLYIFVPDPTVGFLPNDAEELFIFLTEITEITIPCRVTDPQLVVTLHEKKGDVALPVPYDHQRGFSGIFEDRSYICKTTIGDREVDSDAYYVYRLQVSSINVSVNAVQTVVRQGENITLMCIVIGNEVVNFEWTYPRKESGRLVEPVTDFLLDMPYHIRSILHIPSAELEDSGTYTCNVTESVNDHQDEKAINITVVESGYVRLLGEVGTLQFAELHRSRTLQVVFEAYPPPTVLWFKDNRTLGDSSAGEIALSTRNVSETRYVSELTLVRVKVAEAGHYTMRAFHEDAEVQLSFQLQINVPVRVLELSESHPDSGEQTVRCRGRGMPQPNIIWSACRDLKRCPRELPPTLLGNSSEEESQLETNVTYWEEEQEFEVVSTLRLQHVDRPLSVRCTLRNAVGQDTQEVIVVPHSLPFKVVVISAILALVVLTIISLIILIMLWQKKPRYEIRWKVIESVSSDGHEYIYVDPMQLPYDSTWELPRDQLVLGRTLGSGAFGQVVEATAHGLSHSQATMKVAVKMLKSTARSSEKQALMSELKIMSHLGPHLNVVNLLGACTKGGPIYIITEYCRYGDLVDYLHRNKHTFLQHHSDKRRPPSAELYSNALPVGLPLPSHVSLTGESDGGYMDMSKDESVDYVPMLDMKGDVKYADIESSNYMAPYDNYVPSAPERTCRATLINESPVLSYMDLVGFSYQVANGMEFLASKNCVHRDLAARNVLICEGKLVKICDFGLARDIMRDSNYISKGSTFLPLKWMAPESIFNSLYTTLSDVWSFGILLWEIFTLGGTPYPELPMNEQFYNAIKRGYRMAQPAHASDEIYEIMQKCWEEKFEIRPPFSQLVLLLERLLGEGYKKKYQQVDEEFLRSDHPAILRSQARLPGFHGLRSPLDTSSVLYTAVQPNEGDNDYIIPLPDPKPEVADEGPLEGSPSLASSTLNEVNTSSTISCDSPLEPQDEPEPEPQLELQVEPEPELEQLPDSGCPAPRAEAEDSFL

GST-Flk1 = target: T2, GST-Flk1 (Mus musculus, UniProt P35918); assay: GST-FLK-1 bioassay (ELISA, tyrosine kinase activity on poly(glu,tyr)); format: biochemical
T2 construct: GST-Flk1cd purified from sf9 recombinant baculovirus transformation (SUGEN, Inc.); host or cells: Sf9 insect cells (recombinant baculovirus)
T2 sequence (P35918 784-1345 limits assumed): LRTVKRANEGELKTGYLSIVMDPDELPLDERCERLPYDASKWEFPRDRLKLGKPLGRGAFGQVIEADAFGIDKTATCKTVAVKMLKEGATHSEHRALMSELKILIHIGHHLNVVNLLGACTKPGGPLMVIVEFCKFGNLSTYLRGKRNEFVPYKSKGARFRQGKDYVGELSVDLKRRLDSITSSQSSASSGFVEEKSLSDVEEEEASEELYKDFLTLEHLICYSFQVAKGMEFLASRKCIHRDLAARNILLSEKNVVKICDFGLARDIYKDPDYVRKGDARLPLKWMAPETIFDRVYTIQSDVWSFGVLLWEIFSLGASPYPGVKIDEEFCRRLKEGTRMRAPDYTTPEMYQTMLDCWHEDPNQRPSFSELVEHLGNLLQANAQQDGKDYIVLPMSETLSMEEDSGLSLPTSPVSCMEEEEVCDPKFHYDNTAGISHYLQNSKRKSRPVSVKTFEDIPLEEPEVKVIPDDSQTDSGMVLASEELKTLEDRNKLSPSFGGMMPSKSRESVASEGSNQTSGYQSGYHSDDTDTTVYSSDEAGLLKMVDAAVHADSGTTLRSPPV
Method: The assays described herein are performed in an ELISA (Enzyme-Linked Immunosorbent Sandwich Assay) format (Voller, et al., 1980, “Enzyme-Linked Immunosorbent Assay,” Manual of Clinical Immunology, 2d ed., Rose and Friedman, Am. Soc. Of Microbiology, Washington, D.C., pp. 359-371). The general procedure is as follows: a compound is introduced to cells expressing the test kinase, either naturally or recombinantly, for a selected period of time after which, if the test kinase is a receptor, a ligand known to activate the receptor is added. The cells are lysed and the lysate is transferred to the wells of an ELISA plate previously coated with a specific antibody recognizing the substrate of the enzymatic phosphorylation reaction. Non-substrate components of the cell lysate are washed away and the amount of phosphorylation on the substrate is detected with an antibody specifically recognizing phosphotyrosine compared with control cells that were not contacted with a test compound.
This assay analyzes the tyrosine kinase activity of GST-Flk1 on poly(glu,tyr) peptides.
• 1. Corning 96-well ELISA plates (Corning Catalog No. 5805-96). • 2. poly(glu,tyr) 4:1, lyophilizate (Sigma Catalog #P0275). • 3. Preparation of poly(glu,tyr)(pEY) coated assay plates: Coat 2 ug/well of poly(glu,tyr)(pEY) in 100 μL PBS, hold at room temperature for 2 hours or at 4° C. overnight. Cover plates well to prevent evaporation. • 4. PBS Buffer: for 1 L, mix 0.2 g KH2PO4, 1.15 g Na2HPO4, 0.2 g KCl and 8 g NaCl in approx. 900 ml dH2O. When all reagents have dissolved, adjust the pH to 7.2 with HCl. Bring total volume to 1 L with dH2O. • 5. PBST Buffer: to 1 L of PBS Buffer, add 1.0 ml Tween-20. • 6. TBB—Blocking Buffer: for 1 L, mix 1.21 g TRIS, 8.77 g NaCl, 1 ml TWEEN-20 in approximately 900 ml dH2O. Adjust pH to 7.2 with HCl. Add 10 g BSA, stir to dissolve. Bring total volume to 1 L with dH2O. Filter to remove particulate matter. • 7. 1% BSA in PBS: To make a 1× working solution, add 10 g BSA to approx. 990 ml PBS buffer, stir to dissolve. Adjust total volume to 1 L with PBS buffer, filter to remove particulate matter. • 8. 50 mM Hepes pH 7.5. • 9. GST-Flk1cd purified from sf9 recombinant baculovirus transformation (SUGEN, Inc.). • 10. 4% DMSO in dH2O. • 11. 10 mMATP in dH2O. • 12. 40 mM MnCl2 • 13. Kinase Dilution Buffer (KDB): mix 10 ml Hepes (pH 7.5), 1 ml 5M NaCl, 40 μL 100 mM sodium orthovanadate and 0.4 ml of 5% BSA in dH2O with 88.56 ml dH2O. • 14. NUNC 96-well V bottom polypropylene plates, Applied Scientific Catalog #AS-72092 • 15. EDTA: mix 14.12 g ethylenediaminetetraacetic acid (EDTA) to approx. 70 ml dH2O. Add 10 N NaOH until EDTA dissolves. Adjust pH to 8.0. Adjust total volume to 100 ml with dH2O. • 16. 1^0 Antibody Dilution Buffer: mix 10 ml of 5% BSA in PBS buffer with 89.5 ml TBST. • 17. Anti-phosphotyrosine monoclonal antibody conjugated to horseradish peroxidase (PY99 HRP, Santa Cruz Biotech). • 18. 2,2′-Azinobis(3-ethylbenzthiazoline-6-sulfonic acid (ABTS, Moss, Cat. No. ABST). • 19. 10% SDS. Procedure: • 1. Coat Corning 96-well ELISA plates with 2 μg of polyEY peptide in sterile PBS as described in step 3 of Materials and Reagents. • 2. Remove unbound liquid from wells by inverting plate. Wash once with TBST. Pat the plate on a paper towel to remove excess liquid. • 3. Add 100 μl of 1% BSA in PBS to each well. Incubate, with shaking, for 1 hr. at room temperature. • 4. Repeat step 2. • 5. Soak wells with 50 mM HEPES (pH7.5) (150 μl/well). • 6. Dilute test compound with dH2O/4% DMSO to 4 times the desired final assay concentration in 96-well polypropylene plates. • 7. Add 25 μl diluted test compound to ELISA plate. In control wells, place 25 μl of dH2O/4% DMSO. • 8. Add 25 μl of 40 mM MnCl2 with 4×ATP (2 μM) to each well. • 9. Add 25 μl 0.5M EDTA to negative control wells. • 10. Dilute GST-Flk1 to 0.005 μg (5 ng)/well with KDB. • 11. Add 50 μl of diluted enzyme to each well. • 12. Incubate, with shaking, for 15 minutes at room temperature. • 13. […]

## O=C(CN1CCCC1)Nc1ccc(Nc2ncc(-c3ccsc3)cn2)cc1 [Example 29, 2-pyrrolidin-1-yl-N-{4-[(5-thien-3-ylpyrimidin-2-yl)amino]phenyl}acetamide]
PDGFR
  IC50: 0.43 µM
GST-Flk1
  IC50: 4 µM

## CN1CCN(CCNCC(=O)Nc2cccc(Nc3ncc(-c4ccsc4)cn3)c2)CC1 [Example 58, 2-[2-(4-methyl-piperazin-1-yl)-ethylamino]-N-[3-(5-thiophen-3-yl-pyrimidin-2-ylamino)-phenyl]-acetamide]
PDGFR
  IC50: 0.08 µM and 0.43 µM
GST-Flk1
  IC50: 2.5 µM and 4 µM

## CC(=O)Nc1ccc(Nc2ncc(-c3cccs3)cn2)cc1 [Example 13, N-[4-(5-thien-2-ylpyrimidin-2-ylamino]phenyl]acetamide]
PDGFR
  IC50: 0.44 µM
GST-Flk1
  IC50: 9.86 µM

## CC(=O)Nc1cccc(Nc2ncc(-c3ccsc3)cn2)c1 [Example 36, N-{3-[(5-thien-3-ylpyrimidin-2-yl)amino]phenyl}acetamide]
PDGFR
  IC50: 0.66 µM
GST-Flk1
  IC50: 3.5 µM

## O=C(Nc1ccc(Nc2ncc(-c3ccsc3)cn2)cc1)N1CCOCC1 [Example 34, N-{4-[(5-thien-3-ylpyrimidin-2-yl)amino]phenyl}morpholine-4-carboxamide]
PDGFR
  IC50: 1 µM
GST-Flk1
  IC50: 4.7 µM

## Nc1ccc(C(=O)Nc2ccc(Nc3ncc(-c4ccsc4)cn3)cc2)cc1 [Example 4, 4-amino-N-{4-[(5-thien-3-ylpyrimidin-2-yl)amino]phenyl}benzamide]
PDGFR
  IC50: 0.5 µM
GST-Flk1
  IC50: > 20 µM

## CC(=O)c1ccc(-c2cnc(Nc3cccc(N)c3)nc2)s1 [Example 19, 1-(5-{2-[(3-aminophenyl)amino]pyrimidin-5-yl}thien-2-yl)ethanone]
PDGFR
  IC50: 2.4 µM
GST-Flk1
  IC50: 8.6 µM

## O=C(O)c1cccc(Nc2ncc(-c3cccs3)cn2)c1 [Example 17, 3-[(5-thien-2-ylpyrimidin-2-yl)amino]benzoic acid]
PDGFR
  IC50: 15.2 µM
GST-Flk1
  IC50: > 20 µM

## O=C(CN1CCOCC1)Nc1cccc(Nc2ncc(-c3ccsc3)cn2)c1 [Example 61, 2-morpholin-4-yl-N-[3-(5-thiophen-3-yl-pyrimidin-2-ylamino)-phenyl]-acetamide]
PDGFR
  IC50: 0.94 µM
GST-Flk1
  IC50: 2.5 µM

## O=C(CNCCN1CCS(=O)(=O)CC1)Nc1cccc(Nc2ncc(-c3ccsc3)cn2)c1 [Example 60, 2-[2-(1,1-dioxo-1λ^6-thiomorpholin-4-yl)-ethylamino]-N-[3-(5-thiophen-3-yl-pyrimidin-2-ylamino)-phenyl]-acetamide]
PDGFR
  IC50: 0.06 µM
GST-Flk1
  IC50: 2.4 µM

## Oc1ccc(Nc2ncc(-c3ccsc3)cn2)cc1 [Example 1, 4-[(5-thien-3-ylpyrimidin-2-yl)amino]phenol]
PDGFR
  IC50: 0.52 µM
GST-Flk1
  IC50: 4.5 µM

## CN1CCN(Cc2ccc(C(=O)Nc3cccc(Nc4ncc(-c5ccsc5)cn4)c3)cc2)CC1 [Example 11, 4-[(4-methylpiperazin-1-yl)methyl]-N-{3-[(5-thien-3-ylpyrimidin-2-yl)amino]phenyl}benzamide]
PDGFR
  IC50: 0.22 µM
GST-Flk1
  IC50: 0.73 µM

## c1cc(-c2cnc(Nc3ccc(N4CCOCC4)cc3)nc2)cs1 [Example 3, N-(4-morpholin-4-ylphenyl)-5-thien-3-ylpyrimidin-2-amine]
PDGFR
  IC50: 0.15 µM
GST-Flk1
  IC50: > 20 µM

## CCN(CC)CC(=O)Nc1cccc(Nc2cnc(-c3ccsc3)cn2)c1 [Example 41, N-(3-(5-(thiophen-3-yl)pyrazin-2-ylamino)phenyl)-2-(diethylamino)acetamide]
PDGFR
  IC50: > 20 µM
GST-Flk1
  IC50: > 20 µM

## COc1ccc(Nc2ncc(-c3ccsc3)cn2)cc1 [Example 5, N-(4-methoxyphenyl)-5-thien-3-ylpyrimidin-2-amine]
PDGFR
  IC50: 0.55 µM
GST-Flk1
  IC50: > 20 µM

## O=C(CNCC(O)CN1CCOCC1)Nc1cccc(Nc2ncc(-c3ccsc3)cn2)c1 (stereo not drawn) [Example 59, 2-(2-hydroxy-3-morpholin-4-yl-propylamino)-N-[3-(5-thiophen-3-yl-pyrimidin-2-ylamino)-phenyl]-acetamide]
PDGFR
  IC50: 0.09 µM
GST-Flk1
  IC50: 2.7 µM

## O=C(O)c1cccc(Nc2ncc(-c3ccsc3)cn2)c1 [Example 7, 3-[(5-thien-3-ylpyrimidin-2-yl)amino]benzoic acid]
PDGFR
  IC50: 7.39 µM
GST-Flk1
  IC50: 16.2 µM

## COc1ccc(NC(=O)Nc2ncc(-c3ccsc3)cn2)cc1 [Example 9, N-(4-methoxyphenyl)-N′-(5-thien-3-ylpyrimidin-2-yl)urea]
PDGFR
  IC50: > 20 µM
GST-Flk1
  IC50: > 20 µM

## O=C(CN1CCCC1CN1CCCC1)Nc1ccc(Nc2ncc(-c3ccsc3)cn2)cc1 (stereo not drawn) [Example 22, 2-[2-(pyrrolidin-1-ylmethyl)pyrrolidin-1-yl]-N-{4-[(5-thien-3-ylpyrimidin-2-yl)amino]phenyl}acetamide]
PDGFR
  IC50: 0.41 µM
GST-Flk1
  IC50: 4.5 µM

## O=C(NCCN1CCOCC1)Nc1cccc(Nc2ncc(-c3ccsc3)cn2)c1 [Example 49]
PDGFR
  IC50: 0.14 µM
GST-Flk1
  IC50: 1.9 µM

## CCN(CC)c1cccc(Nc2ncc(-c3ccsc3)cn2)c1 [Example 38, N,N-diethyl-N′-(5-thien-3-ylpyrimidin-2-yl)benzene-1,3-diamine]
PDGFR
  IC50: 1.8 µM
GST-Flk1
  IC50: 3 µM

## O=C(CN1CCC(N2CCCC2)CC1)Nc1cccc(Nc2ncc(-c3ccsc3)cn2)c1 [Example 55, 2-(4-pyrrolidin-1-yl-piperidine-1-yl)-N-[3-(5-thiophen-3-yl-pyrimidin-2-ylamino)-phenyl]-acetamide]
PDGFR
  IC50: 0.19 µM
GST-Flk1
  IC50: 2.7 µM

## CCN(CC)CCNC(=O)Nc1cccc(Nc2ncc(-c3ccsc3)cn2)c1 [Example 50]
PDGFR
  IC50: 0.16 µM
GST-Flk1
  IC50: 1.7 µM

## CN1CCN(Cc2ccc(C(=O)Nc3ccc(Nc4ncc(-c5ccsc5)cn4)cc3)cc2)CC1 [Example 12, 4-[(4-methylpiperazin-1-yl)methyl]-N-{4-[(5-thien-3-ylpyrimidin-2-yl)amino]phenyl}benzamide]
PDGFR
  IC50: 0.26 µM
GST-Flk1
  IC50: 2.52 µM

## CN1CCN(CCNC(=O)Nc2cccc(Nc3ncc(-c4ccsc4)cn3)c2)CC1 [Example 53, 1-[2-(4-methyl-piperazin-1-yl)-ethyl]-3-[3-(5-thiophen-3-yl-pyrimidin-2-ylamino)-phenyl]-urea]
PDGFR
  IC50: 0.22 µM
GST-Flk1
  IC50: 2.3 µM

## CCN(CC)CC(=O)Nc1ccc(Nc2ncc(-c3ccsc3)cn2)cc1 [Example 27, N-(4-(5-(thiophen-3-yl)pyrimidin-2-ylamino)phenyl)-2-(diethylamino)acetamide]
PDGFR
  IC50: 0.55 µM
GST-Flk1
  IC50: 6 µM

## CC(=O)Nc1ccc(Nc2ncc(-c3ccsc3)cn2)cc1 [Example 2, N-{4-[(5-thien-3-ylpyrimidin-2-yl)amino]phenyl}acetamide]
PDGFR
  IC50: 0.07 µM
GST-Flk1
  IC50: 3.74 µM
